Measured values as given in the supplement of paper PMC10307832.

Key:
Assay in all cases: relative viability (nuclei count vs DMSO), 5 days (fraction); higher = more cells survive
[1] = compound: O=c1[nH]cc(F)c(=O)[nH]1 [5-Fluorouracil] + O=C(CCCCCCC(=O)Nc1ccccc1)NO [Vorinostat] (partner 1 µM)
How it was run: (§1)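 One day after seeding in 1536-well plates, lung cancer cell lines were dosed by pin tool. Dosing was either single-drug or a fixed anchor-drug dose plus five library-drug doses (not always all listed) in √10 steps. After 5 days, nuclei were stained in one fix-and-stain step and counted on 4× images, and relative viability is the nuclei count of treated wells over that of vehicle wells, given as the median of duplicate plates.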

[2] = compound: O=c1[nH]cc(F)c(=O)[nH]1 [5-Fluorouracil] + Nc1ncn([C@H]2C[C@H](O)[C@@H](CO)O2)c(=O)n1 [Decitabine] (partner 2 µM)
How it was run: as §1

[3] = compound: CN[C@@H]1C[C@H]2O[C@@](C)([C@@H]1OC)n1c3ccccc3c3c4c(c5c6ccccc6n2c5c31)C(=O)NC4 [Staurosporine] + CC1(C)CCC(c2ccc(Cl)cc2)=C(CN2CCN(c3ccc(C(=O)NS(=O)(=O)c4ccc(N[C@H](CCN5CCOCC5)CSc5ccccc5)c(S(=O)(=O)C(F)(F)F)c4)cc3)CC2)C1 [Navitoclax] (partner 0.5 µM)
How it was run: as §1

[4] = compound: O=c1[nH]cc(F)c(=O)[nH]1 [5-Fluorouracil] + NC(=O)Nc1cc(-c2cccc(F)c2)sc1C(=O)N[C@H]1CCCNC1 [AZD7762] (partner 0.2 µM)
How it was run: as §1

Row | Cell Line | relative viability ([1]; first compound 0.02 µM) | relative viability ([1]; first compound 0.2 µM) | relative viability ([1]; first compound 0.6325 µM) | relative viability ([1]; first compound 2 µM) | relative viability ([2]; first compound 0.02 µM) | relative viability ([2]; first compound 0.2 µM) | relative viability ([2]; first compound 0.6325 µM) | relative viability ([2]; first compound 2 µM) | relative viability ([3]; first compound 0.005 µM) | relative viability ([3]; first compound 0.01581 µM) | relative viability ([3]; first compound 0.05 µM) | relative viability ([3]; first compound 0.1581 µM) | relative viability ([3]; first compound 0.5 µM) | relative viability ([4]; first compound 0.02 µM) | relative viability ([4]; first compound 0.2 µM) | relative viability ([4]; first compound 0.6325 µM) | relative viability ([4]; first compound 2 µM)
1 | NCI-H2170 | 0.796 | 0.704 | 0.33 | 0.292 | 0.501 | 0.451 | 0.439 | 0.328 | 0.708 | 0.376 | 0.421 | 0.219 | 0.189 | 0.793 | 0.718 | 0.317 | 0.236
2 | HCC-366 | 0.371 | 0.365 | 0.156 | 0.0639 | 0.344 | 0.32 | 0.194 | 0.128 | 1.03 |  | 0.5 | 0.0585 | 0.0142 | 0.354 | 0.308 | 0.119 | 0.0755
3 | NCI-H2405 | 1.02 | 1.14 | 0.931 | 0.522 | 0.734 | 0.741 | 0.738 | 0.661 | 0.132 | 0.061 | 0.0985 | 0.0939 | 0.0834 | 0.813 | 0.86 | 0.684 | 0.494
4 | COR-L 105 | 0.718 | 0.881 | 0.771 | 0.626 | 0.763 | 0.677 | 0.719 | 0.438 | 0.573 | 0.275 | 0.258 | 0.272 | 0.242 |  |  |  | 
5 | 201T | 1.04 | 0.54 | 0.287 | 0.228 | 0.885 | 0.559 | 0.3 | 0.257 | 1.24 | 1.18 | 1.06 | 0.983 | 0.761 | 0.51 | 0.264 | 0.197 | 0.217
6 | NCI-H2228 | 0.665 | 0.373 | 0.407 | 0.321 |  |  |  |  | 0.6 | 0.399 | 0.165 | 0.127 | 0.0586 |  |  |  | 
7 | LC-2-ad | 0.697 | 0.589 | 0.42 | 0.256 | 0.806 | 0.725 | 0.561 | 0.417 | 0.473 | 0.202 | 0.172 | 0.0798 | 0.0689 | 0.922 | 0.536 | 0.331 | 0.253
8 | NCI-H2087 | 0.801 | 0.924 | 0.515 | 0.367 | 0.244 | 0.295 | 0.271 | 0.224 | 0.744 | 0.679 | 0.374 | 0.133 | 0.103 | 1.42 | 1.01 | 0.606 | 0.408
9 | NCI-H358 | 0.837 | 0.664 | 0.529 | 0.192 | 0.187 | 0.224 | 0.214 | 0.225 |  |  |  |  |  | 0.595 | 0.505 | 0.477 | 0.293
10 | H3255 | 0.798 | 0.77 | 0.734 | 0.537 | 0.694 | 0.629 | 0.645 | 0.488 | 0.172 | 0.102 | 0.112 | 0.0846 | 0.0541 | 0.98 | 0.949 | 0.696 | 0.567
11 | NCI-H23 | 0.512 | 0.582 | 0.307 | 0.21 | 0.33 | 0.295 | 0.367 | 0.279 | 0.764 | 0.412 | 0.257 | 0.2 | 0.12 | 0.142 | 0.208 | 0.163 | 0.172
12 | CAL-12T | 0.759 | 0.591 | 0.563 | 0.447 |  |  |  |  | 0.285 | 0.314 | 0.152 | 0.13 | 0.0943 | 0.685 | 0.588 | 0.421 | 0.421
13 | A-427 | 0.812 | 0.921 | 0.783 | 0.419 | 0.526 | 0.603 | 0.544 | 0.479 | 0.943 | 0.639 | 0.254 | 0.204 |  | 0.676 | 0.805 | 0.308 | 0.253
14 | HARA | 0.517 | 0.39 | 0.281 | 0.16 | 0.519 | 0.533 | 0.605 | 0.488 |  | 0.538 | 0.37 | 0.157 | 0.161 | 0.411 | 0.32 | 0.4 | 0.211
15 | NCI-H1793 | 0.801 | 0.814 | 0.723 | 0.502 | 0.617 | 0.469 | 0.487 | 0.557 | 0.573 | 0.238 | 0.326 | 0.23 | 0.264 | 0.344 | 0.488 | 0.409 | 0.332
16 | NCI-H2023 | 0.369 | 0.124 | 0.103 | 0.0849 | 0.271 | 0.141 | 0.106 | 0.0886 | 0.715 | 0.598 | 0.257 | 0.159 | 0.0924 |  |  |  | 
17 | ABC-1 | 0.982 | 1.24 | 0.963 | 0.834 | 1.25 | 0.959 | 0.944 | 0.87 |  |  |  |  |  | 0.754 | 0.933 | 0.722 | 0.634
18 | IA-LM | 0.906 | 0.659 | 0.274 | 0.25 |  |  |  |  | 0.242 |  | 0.257 | 0.0433 | 0.0163 |  |  |  | 
19 | NCI-H441 | 0.862 | 0.581 | 0.327 |  | 0.252 | 0.226 | 0.254 | 0.26 | 0.521 | 0.333 | 0.325 | 0.16 | 0.17 | 1.18 | 0.857 | 0.402 | 0.317
20 | NCI-H1915 | 0.404 | 0.493 | 0.587 | 0.407 | 0.248 | 0.272 | 0.278 | 0.256 | 0.829 |  | 0.449 | 0.369 | 0.26 | 0.409 | 0.683 | 0.643 | 0.577
21 | LXF-289 | 0.708 | 0.67 | 0.383 | 0.309 | 0.384 | 0.402 | 0.34 | 0.323 | 0.944 |  | 0.263 | 0.0806 | 0.14 | 1.1 | 0.495 | 0.342 | 0.313
